Experimental data published in patent US5219839A, “Adenosine derivatives, their methods of preparation and pharmaceutical compositions in which they are present” (Laboratories UPSA, priority 1992, dated 1993).

Tests used:
[1] = system: twisting and stretching movements in mice; assay: Phenylbenzoquinone test (analgesic activity); assay type: in vivo; details: one hour before phenylbenzoquinone i.p., 5 minutes observation; for Phenylbenzoquinone test 50% inhibitory dose: p.o.; for ED50: Mus musculus, po, read-out: Phenylbenzoquinone test 50% inhibitory dose
Method: The intraperitoneal injection of phenylbenzoquinone causes twisting and stretching movements in mice. Analgesics prevent or reduce this syndrome, which can be considered as the exteriorization of diffuse abdominal pain.
A 0.02% solution of phenylbenzoquinone in water is administered in a volume of 1 ml/100 g.
The products of the Examples are administered orally one hour before the injection of phenylbenzoquinone.
The stretching and twisting movements are counted for each mouse over an observation period of 5 minutes.

A2 receptors = target: T1, A2 receptors (Rattus norvegicus, UniProt P30543); assay: Binding to adenosine A2 receptors: competitive displacement of [^3 H] NECA, rat striatum membranes; details: [^3 H] NECA 4 nM, n=3; for % displacement of the labeled ligand, A2, 1E-7M / inhibition at 0.1 µM: 10^-7 M; for % displacement of the labeled ligand, A2, 1E-7M: 0.1 µM; for inhibition at 10 µM: read-out: % displacement of the labeled ligand, A2, 1E-5M; for inhibition at 0.1 µM: read-out: % displacement of the labeled ligand, A2, 1E-7M
T1 construct: The two hemispheres are separated and the striatum is removed from each of them (Bruns et al., 1986); from tissue; host or cells: rat striatum (membrane homogenate)
Method: (§1) The affinity of the products of the Examples for the rat central A1 and A2 adenosinergic receptors is determined by the competitive technique using a radioactive ligand specifically bound either to the A1 receptors ([^3 H] PIA) or to the A2 receptors ([^3 H] NECA).
After decapitation of the animal, the brain is quickly removed and washed in cold isotonic solution. The two hemispheres are separated and the striatum is removed from each of them (Bruns et al., 1986), weighed and introduced into a polyallomer tube containing 10 volumes of cold homogenization buffer. The tissue is homogenized with an Ultra-Turrax for 30 seconds (3 times 10 seconds with 10-second intervals, 70% of the maximum speed). The ground material is centrifuged at 50,000 g (≈20,500 rpm) for 10 minutes at 4° C.
The residue obtained is resuspended in 10 volumes of homogenization buffer using a Vortex and homogenized with the Ultra-Turrax (5 to 10 seconds, 70% of the maximum speed).
Adenosine deaminase is then added at a rate of 1 U/ml, i.e. 1 μl/ml of homogenate, using a 10 μl Hamilton syringe. The homogenate treated in this way is shaken at room temperature for 30 minutes.
When the incubation is complete, the homogenate is centrifuged at 50,000 g (≈20,500 rpm) for 10 minutes at 4° C.
The residue is taken up with 5 volumes of cold homogenization buffer and passed through the Ultra-Turrax (2 times 10 seconds with a 10-second interval, 70% of the maximum speed) and the homogenate prepared in this way is finally frozen at -70° C.
After the homogenate has been thawed at room temperature, 15 volumes of incubation buffer are added. The homogenate is shaken on a Vortex, passed through a Potter homogenizer (6 to-and-fro movements, speed 6), diluted to 1/10 in incubation buffer and finally placed in a water bath thermostated at 4° C., with shaking, until the end of the experiment.
(§2) 50 μl of [^3 H] NECA at 160 nM, i.e. 4 nM in the final reaction medium allowing for the 1/40 dilution, and 50 μl of the product of the Example at the concentrations considered (10^-5 M and 10^-7 M) are introduced into the reaction tubes. The reaction is initiated by the addition of 1 ml of homogenate and 900 μl of incubation buffer. The procedure is similar for all the compounds studied.
The tubes are shaken and incubated in a water bath at 25° C. for 60 minutes. When the incubation is complete, the contents of the tubes are filtered on Whatman GF/B paper. Each tube is washed twice with 2 ml of rinsing buffer and then the filters themselves are rinsed with 3 ml of this same buffer before being transferred to counting flasks.
10 ml of liquid scintillator (Ready Solv HP/b, Beckman) are added to all the flasks. These are shaken and stored in a refrigerator overnight. The radioactivity is determined in a liquid scintillation counter.
(§3) 3 tests are performed for each concentration studied. The non-specific binding of the [^3 H] NECA is determined by measuring the amount of radioactivity retained on the filter in the presence of 5 μM N-ethylcarboxamidoadenosine (NECA). The value of the non-specific binding is systematically subtracted from that of the tests.
(§4) The results are expressed for each product in the form of the percentage displacement (n=3) of the labeled radioligand at concentrations of 10^-5 M and 10^-7 M.

A1 receptors = target: T2, A1 receptors (Rattus norvegicus, UniProt P25099); assay: Binding to adenosine A1 receptors: competitive displacement of [^3 H] PIA, rat brain membranes; details: [^3 H] PIA 2.5 nM, n=3; for inhibition at 10 µM: 10^-5 M, read-out: % displacement of the labeled ligand, A1, 1E-5M; for % displacement of the labeled ligand, A1, 1E-7M / inhibition at 0.1 µM: 10^-7 M; for % displacement of the labeled ligand, A1, 1E-7M: 0.1 µM; for inhibition at 0.1 µM: read-out: % displacement of the labeled ligand, A1, 1E-7M
T2 construct: the brain is quickly removed and washed in cold isotonic solution; from tissue; host or cells: rat brain hemispheres (membrane homogenate)
T2 sequence (P25099 1-326): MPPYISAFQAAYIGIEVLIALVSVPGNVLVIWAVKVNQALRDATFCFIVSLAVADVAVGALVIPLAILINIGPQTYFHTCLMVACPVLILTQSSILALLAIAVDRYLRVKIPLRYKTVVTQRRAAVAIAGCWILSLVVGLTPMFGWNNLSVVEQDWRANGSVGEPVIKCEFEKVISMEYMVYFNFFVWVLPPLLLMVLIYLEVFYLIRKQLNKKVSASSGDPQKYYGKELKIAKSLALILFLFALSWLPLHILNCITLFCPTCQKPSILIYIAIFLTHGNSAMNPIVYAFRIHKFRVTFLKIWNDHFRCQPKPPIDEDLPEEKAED
Method: as §1
After the animal has been sacrificed by decapitation, the brain is quickly removed and washed in cold isotonic solution. The two hemispheres are separated and weighed and each of them is introduced into a polyallomer tube containing 25 volumes of cold homogenization buffer. Homogenization is effected using an Ultra-Turrax for 30 seconds (3 times 10 seconds with 10-second intervals, 70% of the maximum speed). The ground material obtained is centrifuged at 1000 g (≈3000 rpm) for 10 minutes at 4° C.
The supernatant is centrifuged again at 48,000 g (≈20,000 rpm) for 20 minutes at 4° C.
When this step is complete, the residue is taken up with 4 volumes of homogenization buffer, resuspended using a Vortex and homogenized with the Ultra-Turrax. Adenosine deaminase is then added at a rate of 1 U/ml, i.e. 1 μl/ml of homogenate, using a 10 μl Hamilton syringe.
After this treatment, the homogenate is shaken for 30 minutes at room temperature and then centrifuged at […] (≈20,000 rpm) for 30 minutes at 4° C.
The residue obtained is resuspended in 10 volumes of homogenization buffer and passed through the Ultra-Turrax for 20 seconds (2 times 10 seconds with a 10-second interval, 70% of the maximum speed).
The homogenate prepared in this way is used for the competitive tests. It is kept at 4° C. if the studies take place the same day, or stored at -20° C. in the form of 10 ml aliquots.
After the homogenate has been thawed at room temperature, it is passed through a Potter homogenizer (6 manual to-and-fro movements, speed 6), diluted to 2/5 in incubation buffer and placed in a water bath thermostated at 4° C., with shaking, until the end of the experiment.
as §2, with “H] PIA” for “H] NECA”, “at 100” for “at 160”, “i.e. 2.5” for “i.e. 4”, “is identical” for “is similar”, “the […]” for “the compounds”
The tubes are shaken and incubated in a water bath at 20° C. for 30 minutes. When the incubation is complete, the contents of the tubes are filtered on Whatman GF/B paper. Each tube is washed twice with 2 ml of rinsing buffer and then the filters themselves are rinsed with 3 ml of this same buffer.
The filters are then transferred to counting flasks and 10 ml of liquid scintillator (Ready Solv HP/b, Beckman) are added.
After they have been shaken, the flasks are stored in a refrigerator overnight and the radioactivity is then determined in a liquid scintillation counter.
as §3, with “PIA” for “NECA”, “assessed” for “determined”, “10^-5 M phenylisopropyladenosine (PIA).” for “5 μM N-ethylcarboxamidoadenosine (NECA).”
as §4

T1 sequence (P30543 whole entry): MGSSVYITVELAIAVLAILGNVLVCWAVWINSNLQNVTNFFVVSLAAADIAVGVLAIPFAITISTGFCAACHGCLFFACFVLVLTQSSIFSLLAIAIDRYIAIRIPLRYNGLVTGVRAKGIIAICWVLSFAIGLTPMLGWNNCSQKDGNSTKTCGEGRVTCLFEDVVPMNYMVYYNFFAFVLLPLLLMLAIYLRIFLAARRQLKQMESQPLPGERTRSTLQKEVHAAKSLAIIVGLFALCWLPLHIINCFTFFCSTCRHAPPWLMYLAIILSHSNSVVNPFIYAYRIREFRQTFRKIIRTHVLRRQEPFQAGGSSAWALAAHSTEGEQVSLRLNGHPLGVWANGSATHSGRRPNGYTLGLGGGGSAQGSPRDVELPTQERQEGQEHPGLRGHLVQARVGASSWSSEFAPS

% displacement of the labeled ligand, A2, 1E-5M (A2 receptors; 10^-5 M, 10 µM) [%]	% displacement of the labeled ligand, A2, 1E-7M (A2 receptors) [%]	inhibition at 10 µM (A1 receptors) [%]	% displacement of the labeled ligand, A1, 1E-7M (A1 receptors) [%]	inhibition at 10 µM (A2 receptors; 10^-5 M) [%]	inhibition at 0.1 µM (A2 receptors) [%]	inhibition at 0.1 µM (A1 receptors) [%]	Structure (SMILES)	Phenylbenzoquinone test 50% inhibitory dose [1] [mg/kg]	ED50 [1] [mg/kg]
	71	99	54	92			CCNC(=O)[C@H]1O[C@@H](n2cnc3c(NCC4CC4(c4ccccc4)c4ccccc4)ncnc32)[C@H](O)[C@@H]1O (single isomer, unassigned) [Example 48, β-D-Ribofuranuronamido-N-ethyl-1-deoxy-1-[6-[(+)-[[2,2-diphenylcyclopropyl]methyl]amino]-9H-purin-9-yl]]	0.3	
		94		89	53	15	O=C(NC1CC1)[C@H]1O[C@@H](n2cnc3c(NCC4CC4(c4ccc(F)cc4)c4ccc(F)cc4)ncnc32)[C@H](O)[C@@H]1O (mixture of isomers) [Example 40, β-D-Ribofuranuronamido-N-cyclopropyl-1-deoxy-1-[6-[(±)-[[2-di(4-fluorophenyl)cyclopropyl]methyl]amino]-9H-purin-9-yl]]		0.5
				92	38		O=C(NC1CC1)[C@H]1O[C@@H](n2cnc3c(NCC4CC45c4ccccc4-c4ccccc45)ncnc32)[C@H](O)[C@@H]1O (mixture of isomers) [Example 46, β-D-Ribofuranuronamido-N-cyclopropyl-1-deoxy-1-[6-[(±)-2-[spiro[cyclopropane-1,9'-[9H]-fluorene]methyl]amino]-9H-purin-9-yl]]		0.6
		92		92	28	18	OC[C@H]1O[C@@H](n2cnc3c(NCC4CC4(c4ccccc4)c4cc(Cl)cc(Cl)c4)ncnc32)[C@H](O)[C@@H]1O (mixture of isomers) [Example 52, N^6-(±)-[1-(3,5-Dichlorophenyl)-1-phenylcyclopropan-2-yl]methyladenosine]		41

Further lines, the compound ahead of its results:

Structure (SMILES)	% displacement of the labeled ligand, A2, 1E-5M (A2 receptors; 10^-5 M, 10 µM) [%]	% displacement of the labeled ligand, A2, 1E-7M (A2 receptors) [%]	inhibition at 10 µM (A1 receptors) [%]	% displacement of the labeled ligand, A1, 1E-7M (A1 receptors) [%]	inhibition at 10 µM (A2 receptors; 10^-5 M) [%]	inhibition at 0.1 µM (A2 receptors) [%]	inhibition at 0.1 µM (A1 receptors) [%]	Phenylbenzoquinone test 50% inhibitory dose [1] [mg/kg]	ED50 [1] [mg/kg]
CCNC(=O)[C@H]1O[C@@H](n2cnc3c(NCC4CC4(c4ccccc4)c4ccccc4)ncnc32)[C@H](O)[C@@H]1O (single isomer, unassigned) [Example 49, β-D-Ribofuranuronamido-N-ethyl-1-deoxy-1-[6-[(-)-[[2,2-diphenylcyclopropyl]methyl]amino]-9H-purin-9-yl]]	86	0	93	15				0.7	
OC[C@H]1O[C@@H](n2cnc3c(NCC4CC4(c4ccccc4)c4ccccc4)ncnc32)[C@H](O)[C@@H]1O (mixture of isomers) [Example 51, N^6-(±)-[1,1-Diphenylcyclopropan-2-yl]methyladenosine]			93		95	56	18		31
O=C(NC1CC1)[C@H]1O[C@@H](n2cnc3c(NCC4CC45c4ccccc4CCc4ccccc45)ncnc32)[C@H](O)[C@@H]1O (mixture of isomers) [Example 45, β-D-Ribofuranuronamido-N-cyclopropyl-1-deoxy-1-[6-[(±)-2-[spiro[10',11'-dihydrocyclopropane-1,5'-[5H]-dibenzo[a,d]cycloheptene]methyl]amino]-9H-purin-9-yl]]			93		79	12	20		1.6
CC(C)NC(=O)[C@H]1O[C@@H](n2cnc3c(NCC4CC4(c4ccccc4)c4ccccc4)ncnc32)[C@H](O)[C@@H]1O (mixture of isomers) [Example 47, β-D-Ribofuranuronamido-N-isopropyl-1-deoxy-1-[6-[(±)-[[2,2-diphenylcyclopropyl]methyl]amino]-9H-purin-9-yl]]			93		84	17	7		2
O=C(NC1CC1)[C@H]1O[C@@H](n2cnc3c(NCC4CC4(c4ccccc4)c4ccccc4)ncnc32)[C@H](O)[C@@H]1O (mixture of isomers) [Example 42, β-D-Ribofuranuronamido-N-cyclopropyl-1-deoxy-1-[6-[(±)-[[2,2-diphenylcyclopropyl]methyl]amino]-9H-purin-9-yl]]			96		94	59	20		0.9
